# Reference: ChEMBL document CHEMBL1201862, “PubChem BioAssay data set” (2004)
# The source made the active and inactive calls.
# Key:
# [1] = target: Eukaryotic translation initiation factor 4E (Mus musculus, UniProt P63073); experiment: blockers of eIF4G binding by eIF4E – biochemical, TR-FRET, dose response (AID 855); format: functional;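 further: potency for disrupting eIF4E binding to eIF4GI seen as loss of FRET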
# [2] = luciferase reporter signal suppression in cells – H4 neuroglioma cells, luminescence, dose response (AID 1990); format: functional, cell-based
# [3] = Luminescence Cell-Based Dose Response HTS to Identify Inhibitors of 5'UTR Stem-Loop Driven Prion Protein mRNA Translation in H4 Neuroglioblastoma Cells. [Related pubchem assays: 1827 (Project Summary), 1813 (Primary HTS)]; format: functional
# [4] = alpha-synuclein stem-loop luciferase translation blockers – H4 neuroglioma cells, luminescence, confirmation (AID 1988); format: functional, cell-based
# [5] = target: T1, Protein Tat (Human immunodeficiency virus type 1 group M subtype B (isolate HXB2)(HIV-1), UniProt P04608); format: functional;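 further: tat binding to TAR RNA read out by fluorescence polarization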
# T1 sequence (P04608 whole entry): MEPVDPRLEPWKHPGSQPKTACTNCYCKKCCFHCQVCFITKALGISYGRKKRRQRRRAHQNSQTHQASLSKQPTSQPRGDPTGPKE
# [6] = Luminescence Cell-Based Dose Confirmation HTS to Identify Activators of 5'UTR Stem-Loop Driven Alpha-Synuclein mRNA Translation in H4 Neuroglioblastoma Cells. [Related pubchem assays: 1829 (Project Summary), 1814 (Primary HTS)]; format: functional
# [7] = Luminescence Cell-Based Dose Response HTS to Identify Activators of Luciferase Translation or Activity in H4 […] Cells. [Related pubchem assays: 1829 (Project Summary), 1814 (Primary HTS)]; format: functional
# [8] = test system: Streptococcus sp. 'group A'; experiment: Streptococcus pyogenes SK(-)GAS viability under kanamycin – luminescence, BacTiterGlo, confirmation, counter-screen for streptokinase expression inhibitor project, dose response (AID 1900); format: functional, organism-based
# [9] = test system: H4; experiment: Luminescence Cell-Based Dose Response HTS to Identify Activators of 5'UTR Stem-Loop Driven Prion Protein mRNA Translation in H4 Neuroglioblastoma Cells. [Related pubchem assays: 1829 (Project Summary), 1814 (Primary HTS)]; format: functional; conditions: Homo sapiens
# [10] = Trypanosoma cruzi growth suppression in host cells – NIH3T3 host cells, beta-gal luminescence, confirmation (AID 2044); format: functional, cell-based;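 further: intracellular parasites grown in NIH/3T3 mouse fibroblasts as host cells; luminescent beta-galactosidase reporter signal from transgenic T. cruzi replicating inside host cells; inhibitors lower the luminescence signal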
# [11] = microbe, parasite or virus in culture; format: functional; conditions: Mycobacterium tuberculosis
# [12] = NIH3T3 cell viability loss – ATP luminescence, mouse fibroblasts, counter-screen, dose response (AID 2010); format: functional, cell-based;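 further: cells exposed to compound for about 90 hours before reading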
# [13] = test system: Streptococcus; experiment: GAS UMAA2166 growth inhibition – luminescence, BacTiterGlo, counter-screen for streptokinase expression inhibitor project, dose response (AID 1915); format: functional, organism-based;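 further: potency for reduction of bacterial viability or growth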
# [14] = glucagon-like peptide-1 release potency in STC-1, concentration-response, half-maximal inhibitory concentration in the STC-1 line (AID 1117345); format: functional, cell-based
# [15] = Potency on glucagon-like peptide 1 release, dose-response in NCI-H716 cell line, half maximal inhibitory concentration (AID 1117344); format: functional, cell-based
# [16] = target: Paired box protein Pax-8 (Homo sapiens, UniProt Q06710); experiment: PAX8 transcriptional activity inhibition in RMG-I – RMG-I cells, luciferase, cherry-pick, dose response (AID 687027); format: functional, cell-based;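 further: luciferase reporter driven by Pax8 target thyroperoxidase promoter measured by SteadyGlo luminescence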
# [17] = OVCAR-3 cell viability loss – plate reader, dry powder samples, PAX8 inhibitor project, dose response (AID 743044); format: functional, cell-based
# [18] = IGROV1 cell killing – plate reader, dry powder samples, PAX8 inhibitor project, dose response (AID 743043); format: functional, cell-based; conditions: IGROV-1
# [19] = OVCAR4 cell viability loss – plate reader, dry powder, SA11, cytotoxicity control for PAX8 inhibitor project, dose response (AID 743150); format: functional, cell-based; conditions: OVCAR-4
# [20] = OV-90 cell viability loss – plate reader, dry powder, SA8, PAX8 inhibitor project, dose response (AID 743149); format: functional, cell-based
# [21] = PAX8-dependent cell viability loss – plate reader, dry powder, dose response (AID 743049); format: functional, cell-based
# [22] = target: Peroxisome proliferator-activated receptor gamma/Nuclear receptor coactivator 2 (Homo sapiens, UniProt P37231); format: functional;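 further: agonist potency for raising coactivator recruitment to the receptor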
# [23] = target: Peroxisome proliferator-activated receptor gamma/Nuclear receptor coactivator 1 (Homo sapiens, UniProt P37231); format: functional;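 further: agonist potency as compounds enhance coactivator SRC-1 recruitment to PPARgamma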
# Sequence of Peroxisome proliferator-activated receptor gamma/Nuclear receptor coactivator 1 (P37231 whole entry): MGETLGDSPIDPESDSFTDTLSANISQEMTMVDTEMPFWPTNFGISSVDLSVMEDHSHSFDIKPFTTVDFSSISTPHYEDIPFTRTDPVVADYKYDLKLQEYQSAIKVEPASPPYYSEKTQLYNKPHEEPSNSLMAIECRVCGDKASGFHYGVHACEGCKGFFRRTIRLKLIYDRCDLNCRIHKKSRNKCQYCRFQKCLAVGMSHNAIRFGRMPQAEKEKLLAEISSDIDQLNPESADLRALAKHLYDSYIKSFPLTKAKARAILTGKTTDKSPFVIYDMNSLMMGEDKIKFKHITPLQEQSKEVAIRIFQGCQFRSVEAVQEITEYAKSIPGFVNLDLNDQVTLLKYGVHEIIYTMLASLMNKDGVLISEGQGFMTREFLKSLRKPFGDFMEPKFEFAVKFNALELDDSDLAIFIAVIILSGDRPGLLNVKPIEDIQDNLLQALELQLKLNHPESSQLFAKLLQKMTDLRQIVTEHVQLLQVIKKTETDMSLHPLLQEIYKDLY
# Sequence of Peroxisome proliferator-activated receptor gamma/Nuclear receptor coactivator 1 (Q15788 whole entry, further chain): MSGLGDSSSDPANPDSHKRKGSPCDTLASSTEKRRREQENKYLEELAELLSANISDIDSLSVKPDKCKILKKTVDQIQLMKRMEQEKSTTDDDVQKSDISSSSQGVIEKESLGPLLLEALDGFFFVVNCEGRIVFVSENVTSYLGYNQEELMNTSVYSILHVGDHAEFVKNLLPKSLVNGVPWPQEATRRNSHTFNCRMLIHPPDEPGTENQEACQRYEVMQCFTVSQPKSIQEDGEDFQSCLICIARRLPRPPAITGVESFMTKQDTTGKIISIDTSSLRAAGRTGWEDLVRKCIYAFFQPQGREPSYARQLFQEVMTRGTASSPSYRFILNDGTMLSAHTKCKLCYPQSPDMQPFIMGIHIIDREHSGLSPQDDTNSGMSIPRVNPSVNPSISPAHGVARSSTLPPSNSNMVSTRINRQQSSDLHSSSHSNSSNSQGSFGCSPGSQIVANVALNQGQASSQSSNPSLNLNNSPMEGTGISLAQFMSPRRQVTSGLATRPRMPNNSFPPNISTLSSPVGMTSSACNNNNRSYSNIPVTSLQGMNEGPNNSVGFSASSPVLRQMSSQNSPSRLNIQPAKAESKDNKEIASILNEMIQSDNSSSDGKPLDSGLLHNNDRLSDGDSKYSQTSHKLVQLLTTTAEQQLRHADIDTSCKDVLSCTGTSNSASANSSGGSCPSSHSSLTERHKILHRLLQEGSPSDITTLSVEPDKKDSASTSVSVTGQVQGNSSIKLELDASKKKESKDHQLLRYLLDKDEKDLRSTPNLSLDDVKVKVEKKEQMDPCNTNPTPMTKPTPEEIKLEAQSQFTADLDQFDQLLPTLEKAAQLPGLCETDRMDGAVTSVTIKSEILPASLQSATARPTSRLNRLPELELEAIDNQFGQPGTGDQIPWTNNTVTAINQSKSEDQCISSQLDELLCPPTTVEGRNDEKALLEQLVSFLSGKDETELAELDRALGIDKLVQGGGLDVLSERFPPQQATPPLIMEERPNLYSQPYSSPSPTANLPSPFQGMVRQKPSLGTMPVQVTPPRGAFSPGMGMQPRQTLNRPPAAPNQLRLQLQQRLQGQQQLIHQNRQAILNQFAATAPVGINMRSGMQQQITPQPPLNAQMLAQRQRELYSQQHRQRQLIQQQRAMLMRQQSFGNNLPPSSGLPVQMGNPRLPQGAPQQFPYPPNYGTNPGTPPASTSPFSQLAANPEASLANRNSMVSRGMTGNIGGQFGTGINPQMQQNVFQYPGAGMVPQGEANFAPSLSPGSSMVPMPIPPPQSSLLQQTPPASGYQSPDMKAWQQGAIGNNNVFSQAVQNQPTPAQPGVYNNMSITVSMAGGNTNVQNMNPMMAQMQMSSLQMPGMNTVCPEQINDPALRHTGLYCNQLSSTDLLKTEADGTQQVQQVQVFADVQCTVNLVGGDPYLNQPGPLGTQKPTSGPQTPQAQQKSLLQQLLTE
# [24] = target: Peroxisome proliferator-activated receptor gamma/Nuclear receptor coactivator 3 (Homo sapiens, UniProt P37231); format: functional;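 further: agonist potency for raising coactivator recruitment to the receptor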
# Sequence of Peroxisome proliferator-activated receptor gamma/Nuclear receptor coactivator 3 (P37231 whole entry): as the sequence (P37231 whole entry) above
# Sequence of Peroxisome proliferator-activated receptor gamma/Nuclear receptor coactivator 3 (Q9Y6Q9 whole entry, further chain): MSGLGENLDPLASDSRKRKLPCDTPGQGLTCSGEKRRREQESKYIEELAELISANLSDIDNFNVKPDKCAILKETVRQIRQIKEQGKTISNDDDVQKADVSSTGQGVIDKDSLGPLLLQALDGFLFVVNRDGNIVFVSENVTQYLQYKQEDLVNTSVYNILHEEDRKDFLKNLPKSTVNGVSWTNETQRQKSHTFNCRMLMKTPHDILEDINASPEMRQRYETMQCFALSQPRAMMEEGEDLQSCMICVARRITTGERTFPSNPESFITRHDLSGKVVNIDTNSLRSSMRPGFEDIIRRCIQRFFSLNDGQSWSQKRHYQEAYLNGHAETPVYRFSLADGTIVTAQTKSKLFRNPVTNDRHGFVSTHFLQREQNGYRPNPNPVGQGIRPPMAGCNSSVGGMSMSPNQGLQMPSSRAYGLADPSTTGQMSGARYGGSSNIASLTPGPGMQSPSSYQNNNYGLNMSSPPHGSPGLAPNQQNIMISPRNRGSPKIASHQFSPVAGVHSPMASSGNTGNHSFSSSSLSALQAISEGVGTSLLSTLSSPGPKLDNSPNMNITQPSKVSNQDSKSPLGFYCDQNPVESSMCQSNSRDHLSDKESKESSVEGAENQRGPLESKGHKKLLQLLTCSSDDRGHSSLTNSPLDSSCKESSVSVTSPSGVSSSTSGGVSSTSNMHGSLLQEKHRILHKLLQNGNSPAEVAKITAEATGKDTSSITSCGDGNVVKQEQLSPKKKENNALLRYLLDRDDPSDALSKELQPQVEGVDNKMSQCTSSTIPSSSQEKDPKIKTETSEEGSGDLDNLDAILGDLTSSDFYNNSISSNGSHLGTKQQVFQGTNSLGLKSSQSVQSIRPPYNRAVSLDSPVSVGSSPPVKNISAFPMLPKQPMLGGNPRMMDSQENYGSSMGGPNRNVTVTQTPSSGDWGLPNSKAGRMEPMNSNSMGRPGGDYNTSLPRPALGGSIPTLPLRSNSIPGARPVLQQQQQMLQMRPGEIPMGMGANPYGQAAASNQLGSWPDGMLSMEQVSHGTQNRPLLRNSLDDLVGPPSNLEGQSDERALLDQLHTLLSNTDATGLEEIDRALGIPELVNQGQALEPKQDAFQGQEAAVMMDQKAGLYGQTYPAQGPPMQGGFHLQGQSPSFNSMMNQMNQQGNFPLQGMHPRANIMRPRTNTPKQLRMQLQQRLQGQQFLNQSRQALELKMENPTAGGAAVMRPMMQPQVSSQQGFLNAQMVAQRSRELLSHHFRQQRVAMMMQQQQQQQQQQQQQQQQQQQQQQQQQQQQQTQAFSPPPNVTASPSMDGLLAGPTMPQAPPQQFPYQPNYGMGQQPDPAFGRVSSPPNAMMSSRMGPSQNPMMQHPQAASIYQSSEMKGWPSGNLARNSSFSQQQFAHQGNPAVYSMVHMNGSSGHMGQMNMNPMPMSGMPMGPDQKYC
# [25] = test system: BJ; experiment: BJ-TERT fibroblast viability loss – cell-based, RAS-independent, luminescence, dose response (AID 1933); format: functional; conditions: Homo sapiens
# [26] = test system: BJ; experiment: cells; format: functional, cell-based; conditions: Homo sapiens
# [27] = test system: BJ; experiment: BJ-TERT-LT-ST fibroblast viability loss – cell-based, RAS-independent, luminescence, dose response (AID 1935); format: functional; conditions: Homo sapiens;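 further: BJ fibroblasts immortalized with TERT plus LT and ST oncogenes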
# [28] = DRD fibroblast viability loss – cell-based, non-viral oncogenic, luminescence, dose response (AID 1934); format: functional; conditions: Homo sapiens
# [29] = reduction of Shn3 3'UTR-driven luciferase in osteoblasts – cell-based, Clone20 osteoblasts, firefly luciferase, cherry-picked, dose response (AID 624132); format: functional;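 further: firefly luciferase luminescence from reporter carrying the Shn3 3'UTR in osteoblasts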
# [30] = loss of viability in HepG2 cells – cell-based, CellTiter-Glo, cherry-picked, cytotoxicity control for Shn3 inhibitor project, dose response (AID 624134); format: functional
# [31] = non-specific 3'UTR reporter inhibition in Clone20-Shn3RL – cell-based, Renilla luciferase, cherry-picked, counter-screen for Shn3 inhibitor project, dose response (AID 624133); format: functional
# [32] = target: T2, Replicative DNA helicase DnaB (Mycobacterium tuberculosis, UniProt P9WMR3); experiment: DnaB intein splicing inhibitors, dose response, biochemical, cell-free fluorescence (AID 449749); format: functional
# T2 sequence (P9WMR3 whole entry): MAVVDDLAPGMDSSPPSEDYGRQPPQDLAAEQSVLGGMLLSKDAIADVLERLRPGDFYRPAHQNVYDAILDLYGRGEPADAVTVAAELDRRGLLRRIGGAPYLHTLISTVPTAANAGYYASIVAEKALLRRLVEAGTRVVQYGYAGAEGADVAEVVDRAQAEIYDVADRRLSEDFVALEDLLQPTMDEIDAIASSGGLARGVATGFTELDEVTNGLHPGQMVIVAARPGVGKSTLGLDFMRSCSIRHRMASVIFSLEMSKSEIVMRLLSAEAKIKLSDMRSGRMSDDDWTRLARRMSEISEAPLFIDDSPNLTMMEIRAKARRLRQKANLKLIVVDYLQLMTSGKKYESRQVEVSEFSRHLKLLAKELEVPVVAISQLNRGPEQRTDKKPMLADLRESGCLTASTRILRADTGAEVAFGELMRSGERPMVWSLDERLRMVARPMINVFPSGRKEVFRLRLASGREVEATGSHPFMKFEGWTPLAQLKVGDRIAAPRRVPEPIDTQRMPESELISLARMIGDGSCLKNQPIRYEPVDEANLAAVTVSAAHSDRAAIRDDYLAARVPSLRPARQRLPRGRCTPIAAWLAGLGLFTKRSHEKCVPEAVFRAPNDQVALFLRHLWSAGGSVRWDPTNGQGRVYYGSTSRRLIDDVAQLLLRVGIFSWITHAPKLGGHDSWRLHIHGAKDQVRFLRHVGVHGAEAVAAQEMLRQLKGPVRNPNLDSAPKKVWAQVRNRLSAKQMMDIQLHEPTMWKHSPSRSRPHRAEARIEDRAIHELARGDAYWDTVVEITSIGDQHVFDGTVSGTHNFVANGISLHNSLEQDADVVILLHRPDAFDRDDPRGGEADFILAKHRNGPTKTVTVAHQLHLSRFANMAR
# [33] = target: T3, Protein RecA (Mycobacterium tuberculosis, UniProt P9WHJ3); experiment: Fluorescence Cell-Free Homogeneous Dose Retest to Identify Inhibitors of RecA-Intein Splicing Activity. [Related pubchem assays (depositor defined):AID2097, AID2223, AID489010, AID492950]; format: functional
# T3 sequence (P9WHJ3 whole entry): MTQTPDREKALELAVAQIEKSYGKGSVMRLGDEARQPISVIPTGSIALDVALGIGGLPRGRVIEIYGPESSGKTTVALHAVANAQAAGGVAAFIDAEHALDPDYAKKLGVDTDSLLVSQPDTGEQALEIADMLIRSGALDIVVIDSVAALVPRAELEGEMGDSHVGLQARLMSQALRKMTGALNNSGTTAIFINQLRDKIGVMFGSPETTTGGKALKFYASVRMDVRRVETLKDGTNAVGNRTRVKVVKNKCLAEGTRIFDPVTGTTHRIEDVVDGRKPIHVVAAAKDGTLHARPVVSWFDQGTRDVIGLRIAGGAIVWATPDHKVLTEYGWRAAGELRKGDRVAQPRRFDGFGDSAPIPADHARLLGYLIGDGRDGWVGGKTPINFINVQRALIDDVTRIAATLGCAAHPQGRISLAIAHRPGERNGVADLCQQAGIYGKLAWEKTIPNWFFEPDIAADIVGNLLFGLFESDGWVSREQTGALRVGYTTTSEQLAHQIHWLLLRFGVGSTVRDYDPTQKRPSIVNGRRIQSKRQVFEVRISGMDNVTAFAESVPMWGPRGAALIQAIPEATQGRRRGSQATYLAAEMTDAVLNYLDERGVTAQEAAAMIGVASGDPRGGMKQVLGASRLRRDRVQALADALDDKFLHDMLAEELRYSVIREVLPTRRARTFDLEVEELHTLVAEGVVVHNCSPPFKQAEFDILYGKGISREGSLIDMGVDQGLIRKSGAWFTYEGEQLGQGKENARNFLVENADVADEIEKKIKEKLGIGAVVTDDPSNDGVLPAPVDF
# [34] = target: Disintegrin and metalloproteinase domain-containing protein 17 (Homo sapiens, UniProt P78536); experiment: exosite inhibitors of ADAM17, dose response, biochemical (AID 743260)
# [35] = target: NAD-dependent protein deacylase sirtuin-5, mitochondrial (Homo sapiens, UniProt Q9NXA8); experiment: sirtuin-5 deacylation blockers, concentration series – biochemical, fluorescence imaging, cherry-pick, set 5, dose response (AID 720591);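 further: desuccinylation of succinyl peptide AMC substrate read as fluorescence after trypsin release; potency of inhibitors that lower fluorescence and may act on trypsin instead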
# Sequence of NAD-dependent protein deacylase sirtuin-5, mitochondrial (Q9NXA8 whole entry): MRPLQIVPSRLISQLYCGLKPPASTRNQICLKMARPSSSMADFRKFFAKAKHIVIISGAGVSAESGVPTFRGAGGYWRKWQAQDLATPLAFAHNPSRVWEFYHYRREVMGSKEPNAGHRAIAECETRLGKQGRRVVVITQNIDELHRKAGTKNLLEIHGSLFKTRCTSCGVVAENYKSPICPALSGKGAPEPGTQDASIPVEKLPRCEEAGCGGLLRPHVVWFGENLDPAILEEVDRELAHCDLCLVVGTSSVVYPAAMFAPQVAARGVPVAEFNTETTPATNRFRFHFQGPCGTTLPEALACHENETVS
# [36] = Luminescence Cell-Based Dose Retest to Confirm Inhibitors of Cancer Stem Cells. [Related pubchem assays (depositor defined):AID2717, AID2721]; format: functional; conditions: Homo sapiens
# [37] = target: Neurotensin receptor type 1 (Homo sapiens, UniProt P30989); format: functional;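 further: Image-based confirmatory dose-response assay measuring agonist activity at NTR1; NTR1-expressing U2OS osteosarcoma cells imaged for beta-arrestin GFP spot formation; agonist potency where compounds increase beta-arrestin recruitment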
# Sequence of Neurotensin receptor type 1 (P30989 whole entry): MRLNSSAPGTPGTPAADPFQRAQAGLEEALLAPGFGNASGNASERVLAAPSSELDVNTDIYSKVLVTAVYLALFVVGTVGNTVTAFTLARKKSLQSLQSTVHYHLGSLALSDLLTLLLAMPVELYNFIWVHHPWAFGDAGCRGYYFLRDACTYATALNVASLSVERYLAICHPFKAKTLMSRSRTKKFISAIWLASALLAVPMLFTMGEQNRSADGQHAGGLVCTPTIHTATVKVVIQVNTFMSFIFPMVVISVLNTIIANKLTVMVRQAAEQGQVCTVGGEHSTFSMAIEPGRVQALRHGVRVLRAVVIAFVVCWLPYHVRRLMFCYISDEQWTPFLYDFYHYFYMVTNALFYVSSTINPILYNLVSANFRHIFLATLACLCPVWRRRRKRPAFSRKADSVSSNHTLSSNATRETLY
# [38] = test system: INS1; experiment: INS-1E survival protection against cytokine death – cell-based, luminescence, retest, dose response (AID 449756); format: functional; conditions: Rattus norvegicus;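 further: cell death triggered by IL-1 beta plus TNF-alpha plus IFN-gamma mixture; protective hits raise ATP signal compared with cytokine alone wells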
# Sequence of Eukaryotic translation initiation factor 4E (P63073 whole entry): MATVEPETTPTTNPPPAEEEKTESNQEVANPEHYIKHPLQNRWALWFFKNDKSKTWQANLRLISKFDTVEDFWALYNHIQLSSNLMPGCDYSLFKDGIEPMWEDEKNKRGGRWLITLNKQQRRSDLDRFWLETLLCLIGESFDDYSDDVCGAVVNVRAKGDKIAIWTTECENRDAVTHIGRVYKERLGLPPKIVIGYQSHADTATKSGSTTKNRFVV
smiles,measurement,setting,value
O=C(NCCc1ccncc1)c1ccccc1F,IC50,[1],> 64 µM (inactive)
CC(C)C[C@H](NC(=O)c1[nH]cnc1C(=O)N1CCN(c2ccccc2)CC1)C(=O)OC(C)(C)C,EC50,[2],14.5 µM (active)
same,EC50,[3],65.1 µM (active)
same,EC50,[4],26.5 µM (active)
same,IC50,[5],> 100 µM (active)
C#C[C@]1(O)CC[C@H]2[C@@H]3CCc4cc(OC5CCCC5)ccc4[C@H]3CC[C@@]21C [QUINESTROL],EC50,[6],> 120 µM (not active)
same,EC50,[7],> 120 µM (not active)
same,EC50,[8],1.94 µM (active)
same,EC50,[9],> 120 µM (not active)
same,EC50,[10],4.43 µM (active)
same,CC50,[11],> 40 µM (active)
same,EC50,[12],> 60 µM (not active)
same,EC50,[13],4.17 µM (active)
same,IC50,[14],> 40 µM (inactive)
same,IC50,[15],17.6 µM (inactive)
O=C(CCS(=O)(=O)c1ccccc1)Nc1nc2ccc(F)cc2s1,AC50,[16],3.55 µM (active)
same,AC50,[17],28 µM (active)
same,AC50,[18],36.9 µM (active)
same,AC50,[19],> 100 µM (inactive)
same,AC50,[20],> 100 µM (inactive)
same,AC50,[21],20.3 µM (active)
CSc1oc(-c2ccco2)nc1S(=O)(=O)c1ccccc1,IC50,[5],> 100 µM (active)
CC(C)CC(=O)N1CCN(Cc2cccc(F)c2)CC1,IC50,[1],> 64 µM (inactive)
O=c1oc2ccccc2cc1-c1cn2ccccc2n1,EC50,[22],> 79.4 µM (not active)
same,EC50,[23],> 79.4 µM (not active)
same,EC50,[24],> 79.4 µM (not active)
same,EC50,[25],11 µM (active)
same,EC50,[26],2.92 µM (active)
same,EC50,[27],17.1 µM (active)
same,EC50,[28],3.59 µM (active)
same,AC50,[29],3.64 µM (active)
same,AC50,[30],> 70 µM (inactive)
same,AC50,[31],20.3 µM (active)
COc1cc(C(c2c(C)[nH][nH]c2=O)c2c(C)[nH][nH]c2=O)ccc1OCc1ccc([N+](=O)[O-])cc1,AC50,[32],0.338 µM (active)
same,EC50,[33],0.178 µM (active)
same,IC50,[34],> 69.5 µM (inactive)
Cc1ccc(CCN2CC(C(=O)NCCN(C)C)CC2=O)cc1 (stereo unspecified),AC50,[35],> 30 µM (inactive)
C[C@H](CO)N1C[C@H](C)[C@H](CN(C)C(=O)Nc2cccc3ccccc23)OCc2cnnn2CCCC1=O,AC50,[35],2.28 µM (active)
CCN(CC(=O)Nc1ccccc1C(F)(F)F)C(=O)c1ccc2c(=O)n3c(nc2c1)CCC3,AC50,[35],> 30 µM (inactive)
Cc1ccc(Cn2c(N3CCNCC3)nc3c2c(=O)[nH]c(=O)n3C)cc1,AC50,[35],25.2 µM (active)
Cc1ccc(NC(=O)CSc2nnc(-c3ccc(S(=O)(=O)N4CCCC4)cc3)o2)cc1C,EC50,[22],39.8 µM (not active)
same,EC50,[23],81.2 µM (not active)
same,EC50,[24],> 79.4 µM (not active)
Cc1cc(F)ccc1S(=O)(=O)Nc1ccccc1C(=O)Nc1ccccc1-c1nc2ccccc2[nH]1,AC50,[36],2.02 µM (active)
same,EC50,[37],29 µM (inactive)
same,AC50,[38],6.59 µM (active)
same,AC50,[29],12.1 µM (active)
same,AC50,[30],23.2 µM (active)
same,AC50,[31],9.69 µM (active)
O=C(N/N=C/c1ccc(OC(=O)c2ccccc2Cl)cc1)c1ccc(O)cc1,EC50,[37],17.1 µM (active)
OC(C#CCN1CCCC1)(c1ccccc1)c1cccc(F)c1 (stereo unspecified),EC50,[22],> 79.4 µM (not active)
same,EC50,[23],> 79.4 µM (not active)
same,EC50,[24],> 79.4 µM (not active)
CC(C)N1CCN(Cc2ccc(Oc3ncccn3)cc2)CC1CCO (stereo unspecified),EC50,[22],> 79.4 µM (not active)
same,EC50,[23],> 79.4 µM (not active)
same,EC50,[24],> 79.4 µM (not active)
